One experiment has as its target T1, PDE3A (Homo sapiens, UniProt Q14432).
T1 construct: purchased BPS Bioscience Inc
The experiment in a line: PDE isoform selectivity panel: PDE3A. It is filed as biochemical. As to conditions: 10 μM compound, read-out: % Inhibition of the Enzyme Activity at 10 μM.

Another experiment concerns the target T2, PDE10A1 (Homo sapiens, UniProt Q9Y233).
T2 construct: purchased BPS Bioscience Inc
The experiment in a line: PDE isoform selectivity panel: PDE10A1. It is filed as biochemical.

A further experiment addresses T3, PDE1A (Homo sapiens, UniProt P54750).
T3 construct: purchased BPS Bioscience Inc
The experiment in a line: PDE isoform selectivity panel: PDE1A. Type of experiment: biochemical. As to conditions: 10 μM compound.

Another experiment addresses T4, PDE4D2 (Homo sapiens, UniProt Q08499).
T4 construct: purchased BPS Bioscience Inc
The experiment in a line: PDE isoform selectivity panel: PDE4D2. It is filed as biochemical.

For another experiment, the target named is T5, PDE4B1 (Homo sapiens, UniProt Q07343).
T5 construct: purchased BPS Bioscience Inc
The experiment in a line: PDE isoform selectivity panel: PDE4B1. Type of experiment: biochemical.

Another experiment addresses PDE11A4 (Homo sapiens, UniProt Q9HCR9). The experiment in a line: PDE isoform selectivity panel: PDE11A4. It is filed as biochemical. The settings on record: 10 μM compound.
In a further experiment the target is T6, PDE5A1 (Homo sapiens, UniProt O76074).
T6 construct: purchased BPS Bioscience Inc
The experiment in a line: PDE isoform selectivity panel: PDE5A1. Type of experiment: biochemical. The settings on record: PDE5A1; 10 μM compound.

The next experiment deals with T7, PDE9A2 (Homo sapiens, UniProt O76083).
T7 construct: purchased BPS Bioscience Inc
The experiment in a line: PDE isoform selectivity panel: PDE9A2. It is filed as biochemical. The settings on record: 10 μM compound.

For another experiment, the target named is PDE1B (Homo sapiens, UniProt Q01064). The experiment in a line: PDE isoform selectivity panel: PDE1B. It is filed as biochemical. As to conditions: read-out: % Inhibition of the Enzyme Activity at 10 μM.
Experiment [1] concerns PKA reporter Reg-F[1]:Cat-F[2] in β2AR-HEK293 cells. The experiment in a line: Protein-fragment complementation (Rluc PCA PKA reporter) cell-based assay. The settings on record: FIG. 4B; 100 μM and 10 μM, 30 min.
Procedure: Cell culture: Stable β2AR-HEK293 cells were plated into 96-well white walled microliter plates (Corning) and grown in DMEM (Invitrogen) supplemented with 10% fetal bovine serum. Transient transfections of plasmids harboring the Rluc PCA PKA reporter were performed with FuGENE-6 reagent (Roche).
Rluc activities were monitored for the first 10 seconds after addition of the substrate benzyl-coelenterazine (5 μM, Nanolight).
Protein-fragment Complementation (PCA) cell-based assay. […] To further examine the efficacy of the PDE inhibitors described herein, a reporter enzyme was used—Renilla reniformis luciferase (Rluc), where the N- and C-terminal fragments of Rluc are fused to the catalytic subunits (Cat) and inhibiting regulatory subunits (Reg) of protein kinase A (PKA).
In a further experiment the target is PDE2A (Homo sapiens, UniProt O00408). The experiment in a line: PDE isoform selectivity panel: PDE2A. It is filed as biochemical. The settings on record: PDE2A; 10 μM compound.
The next experiment has as its system PDE4. As to conditions: read-out: EC50 (concentration at 50% activity); FIG. 3; four separate experiments; normalized to 10 μM 1 response.
The target of another experiment is PDE7A (Homo sapiens, UniProt Q13946). The experiment in a line: PDE isoform selectivity panel: PDE7A. Type of experiment: biochemical. As to conditions: PDE7A; 10 μM compound.
Another experiment has as its target T8, PDE4C1 (Homo sapiens, UniProt Q08493).
T8 construct: purchased BPS Bioscience Inc
The experiment in a line: PDE isoform selectivity panel: PDE4C1. It is filed as biochemical.

The target in a further experiment is PDE8A1 (Homo sapiens, UniProt O60658). The experiment in a line: PDE isoform selectivity panel: PDE8A1. It is filed as biochemical. The settings on record: 10 μM compound.
For a further experiment, the target named is T9, PDE3B (Homo sapiens, UniProt Q13370).
T9 construct: purchased BPS Bioscience Inc
The experiment in a line: PDE isoform selectivity panel: PDE3B. Type of experiment: biochemical.

Experiment [2] has as its target T10, PDE4A1A (Homo sapiens, UniProt P27815). The experiment in a line: IMAP fluorescence polarization assay with purified PDE4A1A. It is filed as biochemical. Details: purchased BPS Bioscience. As to conditions: Table 3; three separate experiments (SD provided); read-out: PDE4A IC50. (Fluorescence polarisation rises when a labelled molecule tumbles more slowly, as on binding a larger partner.)
Procedure: Briefly, two microliters of PDE4A1A (0.05 ng/μl PDE4A1A, 10 mM Tris pH 7.2, 0.1% BSA, 10 mM MgCl2, 1 mM DTT, and 0.05% NaN3, final concentration) was dispensed into wells of 1536-well black/solid bottom assay plates (Greiner Bio-One North. America, NC) using a Flying Reagent Dispenser (Aurora Discovery, CA). The plates were centrifuged at 1000 rpm for 30 seconds and then 23 nanoliters of test compound was transferred to the assay plate using a Kalypsys pin tool. After incubation at room temperature for 5 min, 2 μL/well of cAMP (100 nM, final concentration) was dispensed for a final assay volume of 4 μL/well. The plates were centrifuged at 1000 rpm for 30 seconds, incubated for 40 minutes at room temperature, and then 4 microliters of IMAP binding reagent were added to the wells.

The next experiment addresses T11, PDE4B2 (Homo sapiens, UniProt Q07343).
T11 construct: purchased BPS Bioscience Inc
The experiment in a line: PDE isoform selectivity panel: PDE4B2. Type of experiment: biochemical.

Experiment [3] has as its target T10, PDE4A1A.
Procedure: (§1) The potency of these compounds was assessed versus 20 different phosphodiesters (PDEs) using methods described in the foregoing Examples.
In a further experiment the target is PDE7B (Homo sapiens, UniProt Q9NP56). The experiment in a line: PDE isoform selectivity panel: PDE7B. It is filed as biochemical. The settings on record: PDE7B; 10 μM compound.
In a further experiment the target is PDE1C (Homo sapiens, UniProt Q14123). The experiment in a line: PDE isoform selectivity panel: PDE1C. Type of experiment: biochemical. As to conditions: PDE1C; 10 μM compound.
[4] abbreviates: read-out: % Inhibition of the Enzyme Activity at 10 μM.

“Also recorded” adds a separate entry of the source. Read-outs that look alike come from different tables or passages of the source.

Sequence of PDE11A4 (Q9HCR9 whole entry, canonical isoform): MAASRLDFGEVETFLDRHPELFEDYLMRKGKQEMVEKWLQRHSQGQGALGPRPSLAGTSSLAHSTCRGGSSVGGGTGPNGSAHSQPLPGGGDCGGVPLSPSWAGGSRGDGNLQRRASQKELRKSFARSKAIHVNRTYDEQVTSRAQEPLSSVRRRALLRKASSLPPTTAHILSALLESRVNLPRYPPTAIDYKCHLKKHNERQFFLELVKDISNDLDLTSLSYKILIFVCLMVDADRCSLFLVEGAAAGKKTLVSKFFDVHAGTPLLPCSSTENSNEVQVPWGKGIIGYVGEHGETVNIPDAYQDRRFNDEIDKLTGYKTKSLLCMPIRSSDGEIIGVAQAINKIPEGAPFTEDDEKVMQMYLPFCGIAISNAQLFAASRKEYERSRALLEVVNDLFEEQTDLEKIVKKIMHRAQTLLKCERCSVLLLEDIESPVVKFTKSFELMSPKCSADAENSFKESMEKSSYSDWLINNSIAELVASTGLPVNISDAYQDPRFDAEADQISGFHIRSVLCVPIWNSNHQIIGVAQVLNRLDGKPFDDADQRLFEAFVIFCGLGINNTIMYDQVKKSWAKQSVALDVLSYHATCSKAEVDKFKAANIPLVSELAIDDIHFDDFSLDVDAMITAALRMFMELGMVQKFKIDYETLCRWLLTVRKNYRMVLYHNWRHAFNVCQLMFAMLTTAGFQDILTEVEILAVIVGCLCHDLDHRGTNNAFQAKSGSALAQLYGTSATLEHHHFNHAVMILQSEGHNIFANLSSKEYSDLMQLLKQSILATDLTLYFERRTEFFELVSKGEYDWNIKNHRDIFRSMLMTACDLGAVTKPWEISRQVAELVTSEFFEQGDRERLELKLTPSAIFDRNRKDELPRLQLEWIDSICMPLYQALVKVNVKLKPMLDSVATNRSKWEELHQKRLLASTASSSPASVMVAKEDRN
T10 sequence (P27815 1-647 isoform P27815-4): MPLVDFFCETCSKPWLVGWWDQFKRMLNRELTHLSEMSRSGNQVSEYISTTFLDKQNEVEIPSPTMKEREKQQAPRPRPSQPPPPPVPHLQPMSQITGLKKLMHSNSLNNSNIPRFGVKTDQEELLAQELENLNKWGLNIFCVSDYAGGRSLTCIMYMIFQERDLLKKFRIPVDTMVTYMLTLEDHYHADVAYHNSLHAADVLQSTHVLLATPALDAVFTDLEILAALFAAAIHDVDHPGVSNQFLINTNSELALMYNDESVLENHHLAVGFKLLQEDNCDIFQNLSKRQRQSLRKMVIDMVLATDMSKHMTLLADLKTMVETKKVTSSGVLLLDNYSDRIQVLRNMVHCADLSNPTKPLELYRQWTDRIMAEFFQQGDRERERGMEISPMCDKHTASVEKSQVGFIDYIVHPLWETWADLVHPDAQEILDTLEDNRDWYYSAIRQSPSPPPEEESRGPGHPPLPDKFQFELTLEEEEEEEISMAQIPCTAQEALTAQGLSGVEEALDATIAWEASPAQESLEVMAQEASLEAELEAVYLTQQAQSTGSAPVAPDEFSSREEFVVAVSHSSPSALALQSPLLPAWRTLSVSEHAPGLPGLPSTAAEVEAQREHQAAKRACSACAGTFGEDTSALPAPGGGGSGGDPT
T7 sequence (O76083 1-533 isoform O76083-2): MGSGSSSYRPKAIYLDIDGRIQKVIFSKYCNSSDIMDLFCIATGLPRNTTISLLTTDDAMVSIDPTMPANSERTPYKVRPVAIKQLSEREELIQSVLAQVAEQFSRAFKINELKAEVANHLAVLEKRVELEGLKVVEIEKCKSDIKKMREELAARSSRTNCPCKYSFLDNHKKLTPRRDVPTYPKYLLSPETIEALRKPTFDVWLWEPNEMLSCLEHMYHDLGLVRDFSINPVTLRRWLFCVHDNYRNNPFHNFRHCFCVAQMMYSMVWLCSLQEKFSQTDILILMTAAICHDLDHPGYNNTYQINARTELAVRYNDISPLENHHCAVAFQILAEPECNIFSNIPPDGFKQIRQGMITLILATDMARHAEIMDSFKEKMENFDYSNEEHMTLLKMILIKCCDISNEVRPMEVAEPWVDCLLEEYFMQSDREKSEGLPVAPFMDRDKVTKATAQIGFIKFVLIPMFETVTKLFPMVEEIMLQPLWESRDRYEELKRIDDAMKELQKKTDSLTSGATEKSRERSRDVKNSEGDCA
Sequence of PDE2A (O00408 whole entry, canonical isoform): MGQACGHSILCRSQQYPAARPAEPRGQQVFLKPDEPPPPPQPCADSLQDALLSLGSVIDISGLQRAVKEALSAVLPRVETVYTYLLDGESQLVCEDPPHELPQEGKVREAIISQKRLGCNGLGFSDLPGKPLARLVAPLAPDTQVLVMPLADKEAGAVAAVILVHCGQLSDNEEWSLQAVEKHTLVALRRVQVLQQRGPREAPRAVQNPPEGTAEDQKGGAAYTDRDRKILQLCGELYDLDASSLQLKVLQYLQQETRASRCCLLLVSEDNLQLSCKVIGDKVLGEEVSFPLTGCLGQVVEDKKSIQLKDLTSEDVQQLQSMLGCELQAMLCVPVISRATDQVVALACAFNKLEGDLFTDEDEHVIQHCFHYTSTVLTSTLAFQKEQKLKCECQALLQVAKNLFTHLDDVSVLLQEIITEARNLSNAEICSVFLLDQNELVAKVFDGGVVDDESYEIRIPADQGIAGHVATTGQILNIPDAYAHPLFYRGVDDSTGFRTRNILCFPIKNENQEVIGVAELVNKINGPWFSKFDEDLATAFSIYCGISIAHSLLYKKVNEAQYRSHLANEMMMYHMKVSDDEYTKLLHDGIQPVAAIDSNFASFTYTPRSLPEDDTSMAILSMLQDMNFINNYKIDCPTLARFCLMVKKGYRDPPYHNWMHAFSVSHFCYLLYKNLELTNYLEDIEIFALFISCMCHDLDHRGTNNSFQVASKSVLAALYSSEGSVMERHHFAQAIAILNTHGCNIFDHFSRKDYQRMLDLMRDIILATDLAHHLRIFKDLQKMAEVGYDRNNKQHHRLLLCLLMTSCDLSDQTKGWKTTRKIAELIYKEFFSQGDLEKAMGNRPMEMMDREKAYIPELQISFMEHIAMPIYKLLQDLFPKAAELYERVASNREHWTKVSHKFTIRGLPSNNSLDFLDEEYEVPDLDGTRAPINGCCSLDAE
T2 sequence (Q9Y233 1-779 isoform Q9Y233-1): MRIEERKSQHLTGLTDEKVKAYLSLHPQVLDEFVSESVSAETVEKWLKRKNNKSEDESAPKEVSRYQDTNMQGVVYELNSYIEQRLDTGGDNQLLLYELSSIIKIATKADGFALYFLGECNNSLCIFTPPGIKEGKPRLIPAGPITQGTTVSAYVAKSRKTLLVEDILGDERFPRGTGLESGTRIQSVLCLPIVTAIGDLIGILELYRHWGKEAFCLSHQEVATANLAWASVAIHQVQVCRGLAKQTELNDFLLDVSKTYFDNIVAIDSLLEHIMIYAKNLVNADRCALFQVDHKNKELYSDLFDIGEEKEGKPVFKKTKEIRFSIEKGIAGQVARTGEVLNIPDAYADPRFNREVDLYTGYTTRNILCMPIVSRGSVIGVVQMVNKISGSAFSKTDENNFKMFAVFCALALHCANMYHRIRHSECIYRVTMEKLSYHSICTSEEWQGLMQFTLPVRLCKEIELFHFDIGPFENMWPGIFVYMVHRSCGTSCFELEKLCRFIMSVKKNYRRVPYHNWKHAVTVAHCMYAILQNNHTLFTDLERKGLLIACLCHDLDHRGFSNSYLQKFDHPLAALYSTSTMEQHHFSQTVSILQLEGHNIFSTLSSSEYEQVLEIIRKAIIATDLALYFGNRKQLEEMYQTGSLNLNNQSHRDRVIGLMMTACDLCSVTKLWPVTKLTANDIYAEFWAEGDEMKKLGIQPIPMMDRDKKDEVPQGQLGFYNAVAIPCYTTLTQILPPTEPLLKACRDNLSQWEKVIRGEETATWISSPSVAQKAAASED
T11 sequence (Q07343 1-564 isoform Q07343-2): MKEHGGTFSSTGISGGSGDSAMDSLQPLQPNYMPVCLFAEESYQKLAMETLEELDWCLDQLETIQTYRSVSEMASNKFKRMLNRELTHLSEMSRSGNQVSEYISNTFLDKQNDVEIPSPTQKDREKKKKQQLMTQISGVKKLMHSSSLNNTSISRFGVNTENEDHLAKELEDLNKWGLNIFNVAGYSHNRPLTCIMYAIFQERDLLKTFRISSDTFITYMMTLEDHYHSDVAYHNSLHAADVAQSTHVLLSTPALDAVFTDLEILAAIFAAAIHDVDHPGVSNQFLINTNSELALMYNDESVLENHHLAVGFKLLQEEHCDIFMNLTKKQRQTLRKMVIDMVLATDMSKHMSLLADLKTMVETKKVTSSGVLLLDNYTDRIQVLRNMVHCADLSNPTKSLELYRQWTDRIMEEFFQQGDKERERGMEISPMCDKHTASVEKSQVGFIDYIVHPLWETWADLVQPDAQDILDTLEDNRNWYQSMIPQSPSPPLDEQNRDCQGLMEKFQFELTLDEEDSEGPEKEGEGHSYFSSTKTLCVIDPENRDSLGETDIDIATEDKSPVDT
Sequence of PDE1B (Q01064 whole entry, the tested form may be a part, canonical isoform): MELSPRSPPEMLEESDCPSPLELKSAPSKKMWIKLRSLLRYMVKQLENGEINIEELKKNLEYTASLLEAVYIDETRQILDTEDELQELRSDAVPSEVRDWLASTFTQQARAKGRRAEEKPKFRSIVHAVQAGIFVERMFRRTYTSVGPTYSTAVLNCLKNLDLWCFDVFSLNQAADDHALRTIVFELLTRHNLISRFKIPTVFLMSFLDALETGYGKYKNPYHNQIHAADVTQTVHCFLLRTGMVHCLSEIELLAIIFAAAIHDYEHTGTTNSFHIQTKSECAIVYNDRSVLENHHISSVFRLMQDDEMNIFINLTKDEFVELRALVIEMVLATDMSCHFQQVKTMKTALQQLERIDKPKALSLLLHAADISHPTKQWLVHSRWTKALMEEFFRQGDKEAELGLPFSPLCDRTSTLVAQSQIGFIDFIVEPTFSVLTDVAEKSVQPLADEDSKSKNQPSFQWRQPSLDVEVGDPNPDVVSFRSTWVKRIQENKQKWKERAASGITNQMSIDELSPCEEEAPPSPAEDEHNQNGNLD
Procedure for PDE2A: as §1
Procedure for PDE3A: as §1
Procedure for PDE3B: as §1
Procedure for PDE4B1: as §1
Procedure for PDE7A: as §1
Procedure for PDE7B: as §1
Procedure for PDE8A1: as §1

`COc1ccc(OC)c(-c2nnc3n2N=C(c2ccc(OC)c(O[C@@H]4CCOC4)c2)CS3)c1` [Compound 10, (R)-3-(2,5-dimethoxyphenyl)-6-(4-methoxy-3-(tetrahydrofuran-3-yloxy)phenyl)-7H-[1,2,4]-triazolo[3,4-b][1,3,4]thiadiazine]: the inhibition (as a rule, the share of the control response that was lost under treatment) at 10 µM on PDE3A is 56%; on PDE11A4 (setting [4]), less than 26%; at PDE9A2 (setting [4]), less than 26%; at PDE1B, 52%. For the same compound, the IC50 (in general, the concentration needed to halve the response being measured) on PDE10A1 was determined as 632 nM; on PDE4D2, 1.9 nM; at PDE4B1 it was 2.3 nM; against PDE4C1, 46 nM; on PDE3B, 4600 nM; at PDE4A1A [2], 3 nM. Further, the values for the IC50 at PDE4B2 and against PDE4A1A [3] were 1.6 nM and “Sub-nanomolar potencies”, respectively. In addition, the “% Inhibition of the Enzyme Activity at 10 μM” value is 36% at PDE1A; “inactive” on PDE11A4; 58% on PDE5A1; “inactive” on PDE9A2; 68% at PDE2A; 48% at PDE7A. For the same compound, the “% Inhibition of the Enzyme Activity at 10 μM” value at PDE8A1 is “inactive”; on PDE7B, 43%; at PDE1C, 49%. Also, the “effect on luminescence signal (PKA activation)” value in experiment [1] is given as “marked loss of luminescence; also recorded: dose-dependent inhibition”. Further, the EC50 in the experiment with PDE4 was determined as 2.3 nM.

(Values after US20110112079A1, “PHOSPHODIESTERASE INHIBITORS” (priority 2008, published 2011).)
